Columns and labels:
Type in all cases: biochemical
[1] = target: T1, human-type tau 0N4R isoform (recombinant tau) (Homo sapiens, UniProt P10636); test: tau aggregation inhibition experiment, thioflavin T fluorescence (heparin-induced); details: 1 μM compound, compared to 1 μM isoproterenol under the same incubation condition
T1 construct: Fractions including full-length recombinant tau were mixed together; made in house; host or cells: E. coli BL21(DE3)
Protocol: First of all, a plasmid expressing human-type tau 0N4R isoform (383 amino acid) was introduced into E. coli BL21(DE3) strain to purify a recombinant tau. The purification was carried out by modifying the method of Taniguchi et al. (see Taniguchi et al., 2008, JBC, 280, 7614). A soluble fraction was prepared based on E. coli in which tau expression had been induced with isopropyl-β-thiogalactopyranoside, and then fractionation was carried out with a phosphocellulose column (e.g., P11 column produced by Whatman). The fraction eluted at an NaCl concentration of 0.1 to 0.3 M was recovered to perform precipitation and concentration using ammonium sulfate. The precipitate thus obtained was dissolved in a buffer containing 0.5 M of NaCl and 2% of 2-mercaptoethanol and then heated to 100° C. for five minutes. Then, the reactant was subjected to a centrifugation at 15,000×g for 15 minutes. The supernatant thus obtained was recovered and then subjected to precipitation and concentration with ammonium sulfate. The precipitate thus obtained was dissolved in a solution containing 20% of acetonitrile and 0.1% of formic acid so as to be purified using reversed phase HPLC (with a Cosmosil protein-R column produced by Nacalai Tesque). Fractions including full-length recombinant tau were mixed together and then the mixture thus obtained was dried with a freeze dryer to obtain a dried and purified recombinant tau sample. The yield and concentration of the tau thus obtained were analyzed by Coomassie Brilliant Blue (CBB) staining after the product was subjected to electrophoresis using 10% polyacrylamide gel.
The dried and purified recombinant tau sample was dissolved in purified water at a concentration of 0.9 mg/ml. […] Next, their fluorescence value (under excitation light at 360 nm and fluorescent light at 465 nm) was measured with a fluorescent plate reader (infinit F200 produced by TECAN). Thereafter, heparin was added so that the concentration would be 60 μg/ml and then incubation was carried out at 37° C. in a moisture retention box to measure a variation in fluorescence value with time. The incubation was carried out for 168 hours, the fluorescence value was measured, and then the reacted solution was recovered to prepare a sarcosyl insoluble fraction. The sarcosyl insoluble fraction was made to have a final concentration of 1% by adding an aqueous solution of 10% (one-tenth quantity of) sodium N-lauroylsarcosinate to the reacted solution recovered. The solution was subjected to incubation at 4° C. for 30 minutes and then subjected to a centrifugation at 100,000×g for 20 minutes to separate the supernatant and the precipitate from each other. With the supernatant fraction and the precipitate regarded as a soluble tau fraction and a sarcosyl insoluble fraction, respectively, the yield of tau was analyzed by electrophoresis using 10% polyacrylamide gel. Also, part of the reacted solution was fractionated by sucrose density-gradient centrifugation using the method of Maeda et al. (see Maeda et al., 2007, Biochemistry, 46, 3856). After the centrifugation, the reactant was fractioned into 1 to 6 according to density and the tau yield was analyzed by 10% polyacrylamide gel electrophoresis and Western blotting.
During screening, the concentration of the compound was supposed to be 1 μM and compared to the effect achieved by 1 μM of isoproterenol under the same incubation condition.

[2] = target: T1, human-type tau 0N4R isoform (recombinant tau); test: quantity of sarcosyl insoluble tau by electrophoresis after 168 hours incubation; details: incubation for 168 hours; 0.1-100 μM
Protocol: (§1) First of all, a plasmid expressing human-type tau 0N4R isoform (383 amino acid) was introduced into E. coli BL21(DE3) strain to purify a recombinant tau. The purification was carried out by modifying the method of Taniguchi et al. (see Taniguchi et al., 2008, JBC, 280, 7614). A soluble fraction was prepared based on E. coli in which tau expression had been induced with isopropyl-β-thiogalactopyranoside, and then fractionation was carried out with a phosphocellulose column (e.g., P11 column produced by Whatman). The fraction eluted at an NaCl concentration of 0.1 to 0.3 M was recovered to perform precipitation and concentration using ammonium sulfate. […] The yield and concentration of the tau thus obtained were analyzed by Coomassie Brilliant Blue (CBB) staining after the product was subjected to electrophoresis using 10% polyacrylamide gel.
(§2) The dried and purified recombinant tau sample was dissolved in purified water at a concentration of 0.9 mg/ml. […] Next, their fluorescence value (under excitation light at 360 nm and fluorescent light at 465 nm) was measured with a fluorescent plate reader (infinit F200 produced by TECAN). Thereafter, heparin was added so that the concentration would be 60 μg/ml and then incubation was carried out at 37° C. in a moisture retention box to measure a variation in fluorescence value with time. […]

[3] = target: T1, human-type tau 0N4R isoform (recombinant tau); test: sucrose density-gradient centrifugation fractionation of polymerized tau, electrophoresis and Western blotting; details: 10 μM
Protocol: as §1, §2

T1 sequence (P10636 1-383 isoform P10636-6): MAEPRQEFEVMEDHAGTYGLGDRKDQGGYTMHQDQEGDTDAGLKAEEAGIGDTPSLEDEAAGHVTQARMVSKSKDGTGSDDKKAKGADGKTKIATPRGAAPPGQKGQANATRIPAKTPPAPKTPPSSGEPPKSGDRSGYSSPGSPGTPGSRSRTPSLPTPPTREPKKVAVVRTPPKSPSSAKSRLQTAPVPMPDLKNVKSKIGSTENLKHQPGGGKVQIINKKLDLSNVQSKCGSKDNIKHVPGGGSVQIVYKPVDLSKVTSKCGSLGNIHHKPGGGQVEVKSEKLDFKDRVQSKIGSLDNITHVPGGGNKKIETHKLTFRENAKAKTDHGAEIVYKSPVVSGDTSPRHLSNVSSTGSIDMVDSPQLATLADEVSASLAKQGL

SMILES | tau polymerization inhibitory activity (thioflavin T activity) [1] | other results
Oc1ccc(C(O)CN2CCOCC2)cc1O (stereo not shown) [1-(3,4-dihydroxyphenyl)-2-morpholinoethanol] | somewhat higher tau polymerization inhibitory activity than isoproterenol and catechol | 
O=Cc1cccc(O)c1O [2,3-dihydroxybenzaldehyde] | also exhibited as high tau polymerization inhibitory activity | 
COc1ccc(CCN)cc1OC [2-(3,4-dimethoxy)ethylamine] | nor 2-(3,4-dimethoxy)ethylamine (indicated by 3,4-DMPT and represented by the following Chemical Formula (10)) exhibited any tau polymerization inhibitory activity | 
Cn1ccnc1C(O)CN (stereo not shown) [2-amino-1-(1-methyl-1H-imidazol-2-yl)ethanol] | none of these compounds exhibited the tau polymerization inhibitory activity | 
NCC(O)c1ccc(Cl)c(Cl)c1 (stereo not shown) [2-amino-1-(3,4-dichlorophenyl)ethanol] | No tau polymerization inhibitory activities | 
NCC(O)c1ccco1 (stereo not shown) [2-amino-1-(furan-2-yl)ethanol] | none of these compounds exhibited the tau polymerization inhibitory activity | 
NCC(O)c1cccnc1 (stereo not shown) [2-amino-1-(pyridine-3-yl)ethanol] | none of these compounds exhibited the tau polymerization inhibitory activity | 
NCC(O)c1ccccc1 (stereo not shown) [2-amino-1-phenylethanol] | No tau polymerization inhibitory activities | 
CC(=O)c1ccc(O)c(O)c1 [3,4-dihydroxyacetophenone] | as high tau polymerization inhibitory activity as isoproterenol and catechol | 
O=Cc1ccc(O)c(O)c1 [3,4-dihydroxybenzaldehyde] | exhibited no tau polymerization inhibitory activity | 
NCc1ccc(O)c(O)c1 [3,4-dihydroxybenzylamine] | as high tau polymerization inhibitory activity as isoproterenol and catechol | 
Nc1cccc(O)c1O [3-aminocatechol] | inhibited the tau polymerization as strongly as 4-aminocatechol did | 
COc1cccc(O)c1O [3-methoxycatechol] | also exhibited as high tau polymerization inhibitory activity | 
NCCCC(=O)Nc1ccc(O)c(O)c1 [4-(4-aminobutanoylamino) catechol] | decreased significantly to almost the same level as isoproterenol's | 
CC(C)CCN(CCC(C)C)c1ccc(O)c(O)c1 [4-(diisopentylamino) catechol] | decreased significantly to almost the same level as isoproterenol's | 
CC(C)CCNc1ccc(O)c(O)c1 [4-(isopentylamino) catechol] | intense tau polymerization inhibitory activity did not change | 
O=C(Nc1ccc(O)c(O)c1)N1CCOCC1 [4-(morpholinocarbonylamino) catechol] | intense tau polymerization inhibitory activity slightly decreased | 
O=C(CCl)c1ccc(O)c(O)c1 [4-chloroacetylcatechol] | somewhat higher tau polymerization inhibitory activity than isoproterenol and catechol | 
Oc1ccc(Cl)cc1O [4-chlorocatechol] | as high tau polymerization inhibitory activity as isoproterenol and catechol | 
COc1ccc(O)c(O)c1 [4-methoxycatechol] | did not affect 1,2,4-benzenetriol's intense tau polymerization inhibitory activity | 
CC(C)(C)c1ccc(O)c(O)c1 [4-tert-butylcatechol] | as high tau polymerization inhibitory activity as isoproterenol and catechol | 
COc1ccc(CCN)cc1OC [homoveratylamine] | Neither homoveratylamine (indicated by HV and represented by the following Chemical Formula (9)) nor 2-(3,4-dimethoxy)ethylamine (indicated by 3,4-DMPT and represented by the following Chemical Formula (10)) exhibited any tau polymerization inhibitory activity | 
CC(C)NCC(O)c1ccc(O)c(O)c1 (stereo not shown) [isoproterenol] |  | inhibition of tau polymerization (sarcosyl insoluble tau), concentration dependence [2]: inhibited the tau polymerization depending on the concentration; quantity of the tau recovered in Fraction 3 (oligomer tau) [3]: also seen to decrease; quantity of the tau recovered in Fractions 4 and 5 (fibrosed tau) [3]: seen to decrease significantly
